Reference: patent US20190144499A1, “PHENYL P[…], AND MANUFACTURING METHOD AND PHARMACEUTICAL APPLICATION THEREOF” (Jiangsu Hengrui Medicine Co., Ltd., priority 2016, published 2019)
Where a SMILES comes first, the peptide text is derived from it. [ ]: non-standard residue; d: D form. The star is where a group is joined. Piperidin1yl(4-NH2,4-COOH) = NC1(C(=O)O)CCN(*)CC1; N(Indan-2-yl)Gly = O=C(O)CNC1Cc2ccccc2C1; Gly(NCH2CH2Ph) = O=C(O)CNCCc1ccccc1; Morpholide = C1CN(*)CCO1

Legend:
[1] = target: T1, human KOR (h-KOR) receptors (Homo sapiens, UniProt P41145); experiment: h-KOR agonist activity test (cAMP/CRE-luciferase reporter in HEK293/h-KOR/CRE cells); format: cell-based; conditions: Forskolin, 4 hours, luciferase chemiluminescence, read-out: EC50 on agonizing h-KOR receptor and affecting cAMP levels
T1 construct: expressed in transfected cells
Source text: The objective of this experiment is to determine the agonistic effect of the compounds of the present invention on human KOR (h-KOR) receptors, and to evaluate the in vitro activity of the compounds according to the values of EC50.
The compounds of the present invention can activate h-KOR receptor, thereby reducing intracellular cAMP levels. The second messenger cAMP enters the nucleus and binds to the CRE of the DNA, thereby initiating the expression of the downstream luciferase. Luciferase reacts with its substrate to emit fluorescence, and the measured fluorescence signals reflect the agonistic activity of the compounds.
The activity of the test example compounds on agonizing h-KOR and affecting downstream cAMP levels was tested by the following method.
KOR/pcDNA3.1 (+) and CRE/pGL4.29 were transferred into HEK293 cells. G418 and hygromycin were added into the culture medium, and HEK293/KOR/CRE monoclonal cell lines were screened in a 96-well cell culture plate.
HEK293/h-KOR/CRE monoclonal cells were cultured in a DMEM/high glucose medium (10% FBS, 1 mg/ml G418, 200 μg/ml hygromycin, mixed uniformly), and passaged every 3 days. On the day of the experiment, a cell suspension was prepared with a fresh cell medium, added to a 96 well plate (BD, #356692) with 20,000 cells/well, and incubated in 5% CO2 at 37° C. On the second day, the compound was dissolved in pure DMSO at a concentration of 20 mM, then formulated with DMSO to a first concentration of 200 nM and diluted in 3 fold concentration gradient to 8 concentrations. 90 μl of DMSO were added to blank and control wells. The compound solution was diluted 20-fold with DMEM/hyperglucose (SH30243.01B, Hyclone) medium containing […]. The cell culture plates inoculated on the first day were taken out, and 10 μl of the diluted drug or the control (0.5% DMSO) was added to each well. The plate was gently shaken, and placed at 37° C. for 4 hours. In a 96-well cell culture plate, 100 μl of luciferase assay solution (Promega, # E6110) was added to each well. The plate was placed for 5 minutes at room temperature. The chemiluminescence value was measured using Victor 3.0. The EC50 values of the compounds were calculated using Graphpad Prism software based on each concentration of the compound and the corresponding signal value.
The activity of the compounds of the present invention on agonizing h-KOR and affecting downstream cAMP levels was determined by the above test, and the EC50 values are shown in Table 1.1.

[2] = Pharmacokinetics assay in rats after intravenous administration; format: in vivo; conditions: both sexes, Sprague-Dawley, rat, plasma, SD rats, 1 mg/kg; for Vd: read-out: Apparent Distribution Volume Vz; for AUC: read-out: Area Under Curve AUC; for clearance: read-out: Clearance CL; for half-life: read-out: Half-Life t1/2 (converted); for MRT: read-out: Mean Residence Time MRT
Procedure: (§1) Rats were used as test animals. The drug concentration in plasma at different time points was determined by LC/MS/MS after intravenous administration of the compounds of Examples 2, 5 and 8 to the rats. The pharmacokinetic behavior of the compounds of the present invention was studied and evaluated in SD rats.
12 Sprague-Dawley (SD) rats, half male and half female, were purchased from SINO-BRITISH SIPPR/BK LAB. ANIMAL LTD., CO, with License No.: SOCK (Shanghai) 2008-0016.
The appropriate amount of the test compounds was weighed, and added with 5% 5% DMSO+5% PEG400+90% normal saline successively.
After an overnight fast, 12 SD rats, half male and half female, were divided into 3 groups equally, and administered intravenously at a dose of an administration volume of 5 mL/kg.
(§2) In the venous group, blood (0.2 mL) was taken from the orbital sinus before administration and 0.25, 0.5, 1.0, 2.0, 4.0, 8.0, 11.0 and 24.0 hours after administration. The samples were stored in heparinized tubes, and centrifuged for 10 minutes at 3,500 rpm to separate the blood plasma. The plasma samples were stored at −20° C.
The concentration of the test compounds in SD rat plasma after intravenous administration was determined by LC-MS/MS.

[3] = Pharmacokinetics assay in dogs after intravenous administration; format: in vivo; conditions: male, dog, plasma, Beagle dogs, 0.3 mg/kg
Procedure: as §1, with “Beagle dogs” for “Rats”, “compound” for “compounds”, “Example” for “Examples 2,”, “5” for “5 and 8”, “Beagle dogs.” for “rats.”, “Beagle dogs.” for “SD rats.”
3 Beagle dogs in one group, male, were purchased from Medicilon Pharmaceutical Technology (Shanghai) Co., Ltd.
The appropriate amount of the test compound was weighed, and added with 100% normal saline.
After an overnight fast, 3 Beagle dogs in one group, male, were administered intravenously at a dose of an administration volume of 2 mL/kg.
as §2, with “(1” for “(0.2”, “jugular vein” for “orbital sinus”, “5 minutes, 15 minutes,” for “0.25,”, “12.0” for “11.0”, “−80°” for “−20°”
The concentration of the test compound in Beagle dog plasma after intravenous administration was determined by LC-MS/MS.

[4] = tested on: carrageenan inflammatory pain model in rats; experiment: Carrageenan-induced inflammatory pain in rats, plantar tenderness test (electronic Von Frey); format: in vivo, Wistar rats; conditions: for threshold of tenderness: 30 minutes before detection, 4 hours after carrageenan, model group 7.6 g, blank control about 20 g
Procedure: A carrageenan inflammatory pain model in rats was established to evaluate the therapeutic effect of KOR agonists on inflammatory pain in rats.
Male Wistar rats were purchased from Shanghai Slac Laboratory Animal Co., Ltd. (Shanghai, China, Certificate No. 2015000513408, License No. SCXK (Shanghai) 2012-0002). The rats were 150-180 g, and fed at 5/cage, in a condition of 12/12 hours light/dark cycle adjustment, constant temperature of 23±1° C., humidity of 50˜60%, and free access to food and water. After purchase, the animals adapted to this condition for 7 days before the experiment was started.
1% λ-Carrageenan was placed in physiological saline, and stirred overnight to form a jelly-like suspension.
The experimental method was modified in accordance with the method of Document 1 (Kazunari Nakao et al.). Before inflammatory pain experiment, rats were randomly divided into the following groups according to body weight: blank control group, model group, Example 5-0.1 mg/kg group, and Example 5-0.3 mg/kg group. There were 8 rats in each group. Inflammatory pain model was made in Wistar rat footpads that were subcutaneously injected with 1% carrageenan (100 μl). After 4 hours, the rats were subjected to a plantar tenderness test to evaluate the mechanical pain threshold. Single tail vein administration of the drug (1 ml/kg) was carried out 30 minutes before detection, and the control group and the model group were given corresponding solvents.
Electronic Von Frey: UGO BASILE, type 38450.
The experimental data were expressed as mean±standard deviation (S.D.). Statistical comparisons were performed using the excel software t test.

T1 sequence (P41145 whole entry): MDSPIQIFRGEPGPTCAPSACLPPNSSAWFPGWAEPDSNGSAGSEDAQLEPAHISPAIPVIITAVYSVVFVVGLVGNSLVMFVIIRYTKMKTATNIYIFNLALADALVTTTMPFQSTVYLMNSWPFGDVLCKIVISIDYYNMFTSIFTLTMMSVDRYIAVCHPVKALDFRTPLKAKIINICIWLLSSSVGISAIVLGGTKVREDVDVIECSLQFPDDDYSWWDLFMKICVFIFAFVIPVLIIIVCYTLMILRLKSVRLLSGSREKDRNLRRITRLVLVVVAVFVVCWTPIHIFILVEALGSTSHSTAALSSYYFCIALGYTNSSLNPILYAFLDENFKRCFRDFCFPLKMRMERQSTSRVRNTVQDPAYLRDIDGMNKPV

SMILES | EC50 [1] [pM] | Vd [2] [L/kg] | AUC [2] [ng·h/mL] | clearance [2] [mL/min/kg] | half-life [2] [min] | MRT [2] [min] | further results
CC(C)C[C@@H](NC(=O)[C@@H](Cc1ccccc1)NC(=O)CNCC1(c2ccccc2)CC1)C(=O)N[C@H](CCCCN)C(=O)N1CCC(N)(C(=O)O)CC1 [Example 1, 4-amino-1-((6R,9R,12R)-12-(4-aminobutyl)-6-benzyl-9-isobutyl-4,7,10-trioxo-1-(1-phenylcyclopropyl)-2,5,8,11-tetraazatridecan-13-oyl)piperidine-4-carboxylic acid] | 56 |  |  |  |  |  | 
CC(C)C[C@@H](NC(=O)[C@@H](Cc1ccccc1)NC(=O)CNC[C@@H](C)c1ccccc1)C(=O)N[C@H](CCCCN)C(=O)N1CCC(N)(C(=O)O)CC1 [Example 2, 4-amino-1-((2R,5R,8R,14S)-2-(4-aminobutyl)-8-benzyl-5-isobutyl-4,7,10-trioxo-14-phenyl-3,6,9,12-tetraazapentadecan-1-oyl)piperidine-4-carboxylic acid] | 15 | 0.28 ± 0.046 | 2560 ± 427 | 6.66 ± 1.28 | 29.3 ± 1.56 | 31.5 ± 5.94 | 
CC(C)C[C@@H](NC(=O)[C@@H](Cc1ccccc1)NC(=O)CNCC(C)(C)c1ccccc1)C(=O)N[C@H](CCCCN)C(=O)N1CCC(N)(C(=O)O)CC1 [Example 3, 4-amino-1-((2R,5R,8R)-2-(4-aminobutyl)-8-benzyl-5-isobutyl-14-methyl-4,7,10-trioxo-14-phenyl-3,6,9,12-tetraazapentadecan-1-oyl)piperidine-4-carboxylic Acid] | 4 |  |  |  |  |  | 
CC(C)C[C@@H](NC(=O)[C@@H](Cc1ccccc1)NC(=O)CNC[C@@H](c1ccccc1)C(C)C)C(=O)N[C@H](CCCCN)C(=O)N1CCC(N)(C(=O)O)CC1 [Example 4, 4-amino-1-((2R,5R,8R,14R)-2-(4-aminobutyl)-8-benzyl-5-isobutyl-15-methyl-4,7,10-trioxo-14-phenyl-3,6,9,12-tetraazahexadecan-1-oyl)piperidine-4-carboxylic Acid] | 9 |  |  |  |  |  | 
CC(C)C[C@@H](NC(=O)[C@@H](Cc1ccccc1)NC(=O)CNC[C@H](C)c1ccccc1)C(=O)N[C@H](CCCCN)C(=O)N1CCC(N)(C(=O)O)CC1 [Example 5, 4-amino-1-((2R,5R,8R,14R)-2-(4-aminobutyl)-8-benzyl-5-isobutyl-4,7,10-trioxo-14-phenyl-3,6,9,12-tetraazapentadecan-1-oyl)piperidine-4-carboxylic Acid] | 1 | 0.41 ± 0.112 | 1700 ± 363 | 10.1 ± 1.8 | 28.1 ± 5.52 | 33.4 ± 7.44 | Vd ([3]; read-out: Apparent Distribution Volume Vz): 0.296 ± 0.019 L/kg; AUC ([3]; read-out: Area Under Curve AUC): 1980 ± 165 ng·h/mL; clearance ([3]; read-out: Clearance CL): 2.54 ± 0.21 mL/min/kg; half-life ([3]; read-out: Half-Life t1/2 (converted)): 80.4 ± 2.4 min; MRT ([3]; read-out: Mean Residence Time MRT): 85.8 ± 4.8 min; increase of threshold of tenderness compared with the model group ([4]; 0.1 mg/kg i.v. once): 79.5%; threshold of tenderness ([4]; 0.1 mg/kg i.v. once): 13.7 g; increase of threshold of tenderness compared with the model group ([4]; 0.3 mg/kg i.v. once): 204.5%; threshold of tenderness ([4]; 0.3 mg/kg i.v. once): 23.2 g
CC(C)C[C@@H](NC(=O)[C@@H](Cc1ccccc1)NC(=O)CN[C@H]1C[C@@H]1c1ccccc1)C(=O)N[C@H](CCCCN)C(=O)N1CCOCC1 [Example 6, (R)—N—((R)-6-amino-1-morpholino-1-oxohexan-2-yl)-4-methyl-2-((R)-3-phenyl-2-(2-(((1S,2R)-2-phenylcyclopropyl)amino)acetamido)propanamido)pentanamide] | 79 |  |  |  |  |  | 
CCC(CNCC(=O)N[C@H](Cc1ccccc1)C(=O)N[C@H](CC(C)C)C(=O)N[C@H](CCCCN)C(=O)N1CCC(N)(C(=O)O)CC1)c1ccccc1 (stereo partly drawn) [Example 7, 4-amino-1-((2R,5R,8R)-2-(4-aminobutyl)-8-benzyl-5-isobutyl-4,7,10-trioxo-14-phenyl-3,6,9,12-tetraazahexadecan-1-oyl)piperidine-4-carboxylic Acid] | 3 |  |  |  |  |  | 
CC(C)C[C@@H](NC(=O)[C@@H](Cc1ccccc1)NC(=O)CNCCc1ccccc1)C(=O)N[C@H](CCCCN)C(=O)N1CCC(N)(C(=O)O)CC1 [Example 8, 4-amino-1-((2R,5R,8R)-2-(4-aminobutyl)-8-benzyl-5-isobutyl-4,7,10-trioxo-14-phenyl-3,6,9,12-tetraazatetradecan-1-oyl)piperidine-4-carboxylic Acid] (H-[Gly(NCH2CH2Ph)][dF][dL][dK]-{Piperidin1yl(4-NH2,4-COOH)}) | 13 | 0.499 ± 0.111 | 1520 ± 436 | 11.6 ± 3.3 | 30.1 ± 2.28 | 34 ± 6.72 | 
CC(C)C[C@@H](NC(=O)[C@@H](Cc1ccccc1)NC(=O)CNC1Cc2ccccc2C1)C(=O)N[C@H](CCCCN)C(=O)N1CCOCC1 [Example 10, (R)—N—((R)-6-amino-1-morpholino-1-oxohexan-2-yl)-2-((R)-2-(2-((2,3-dihydro-1H-inden-2-yl)amino)acetamido)-3-phenylpropanamido)-4-methylpentanamide] (H-[N(Indan-2-yl)Gly][dF][dL][dK]-Morpholide) | > 1000 |  |  |  |  |  | 
